Test results published in patent publication US4169846A, “Cis-platinum (II) complex of trans-l-1,2-diaminocyclohexane” (priority 1976, dated 1979).
Read-outs that look alike come from different tables or passages of the source.

Legend:
male mice (ddN strain) = assay: Acute toxicity test (intraperitoneal); assay type: in vivo; conditions: i.p., suspension in 0.3% CMC
Experimental: A suspension of the test substance in 0.3% CMC aqueous solution was intraperitoneally administered to the test mice in a dose amount of 0.5 ml per mouse.

[1] = tested on: ascites-tumor Sarcoma 180A; assay type: in vivo, ddN mice; conditions: for Growth Rate T/C (%): daily from one to five days
Experimental: To test the anti-tumor activity of the compounds of the present invention, cells of ascites-tumor Sarcoma 180A were transplanted by intraperitoneal injection to groups of ddN mice. From one to five days, the test compound was administered by intraperitoneal injection day after day. The ascites of the resulting mice was sampled to evaluate the anti-tumor activity of the test compound by means of the growth rate of the tumor, T/C % (groups with treatment/groups without treatment). In the table, the designations "-", "+", "++" and "+++" mean 100-66%, 65-41%, 40-11% and 10-0%, of the T/C %, respectively.

leukemia L 1210 = assay: Anti-tumor activity on mice against leukemia L 1210; assay type: in vivo, CDF1 mice; conditions: days 1 and 5
Experimental: (§1) To test the anti-tumor activity of the compounds of the present invention, 100,000 cells/mouse of leukemia L 1210 and 1,000,000 cells/mouse of leukemia P 388 were transplanted by intraperitoneal injection to groups of CDF1 mice, respectively. One and 5 days after the transplantation, the test compound was administered by intraperitoneal injection to the mice.
(§2) The anti-tumor activity of the test compound was evaluated by means of T/C %, i.e., 100 times the mean survival period of the groups injected with the test compound divided by the means survival period of the comparison groups which were not injected with the test compound. The value of higher than 120% for L 1210 and higher than 125% for P 388 means that the test compound has a good effect.

leukemia P 388 = assay: Anti-tumor activity on mice against leukemia P 388; assay type: in vivo, CDF1 mice; conditions: days 1 and 5
Experimental: as §1, §2

Compound | Evaluation ([1]; 1 mg/kg i.p.) | Growth Rate T/C (%) ([1]; 1 mg/kg i.p.) | Evaluation ([1]; 3 mg/kg i.p.) | Growth Rate T/C (%) ([1]; 3 mg/kg i.p.) | T/C % (leukemia P 388; P 388, 50 mg/kg i.p.) [%] | T/C % (leukemia P 388; P 388, 100 mg/kg i.p.) [%] | Evaluation ([1]; 10 mg/kg i.p.) | Growth Rate T/C (%) ([1]; 10 mg/kg i.p.) | T/C % (leukemia P 388; P 388, 25 mg/kg i.p.) [%] | also measured
NC1CCCCC1N.[Cl][Pt][Cl] (stereo not drawn) [Compound No. 2, Cis-dichloro(trans-d-1,2-diaminocyclohexane)platinum (II)] | ++ (40-11%) | 8 | +++ (10-0%) | 1 | – | – | – | – | – | LD50 (male mice (ddN strain)): 22.5 mg/kg; T/C % (leukemia L 1210; L 1210, 12.5 mg/kg i.p.): 291%; T/C % (leukemia L 1210; L 1210, 25 mg/kg i.p.): 110%; T/C % (leukemia L 1210; L 1210, 50 mg/kg i.p.): 71%; T/C % (leukemia L 1210; L 1210, 100 mg/kg i.p.): 71%; T/C % (leukemia L 1210; L 1210, 200 mg/kg i.p.): 0%
Cis-uracil(trans-d-1,2-diaminocyclohexane)platinum (II) [Compound No. 14] | – | – | – | – | 140 | 142 | – | – | – | T/C % (leukemia P 388; P 388, 200 mg/kg i.p.): 178%
NC1CCCCC1N.[Cl-].[Cl-].[Pt+2] (stereo not drawn) [Compound No. 1, Cis-dichloro(cis-1,2-diaminocyclohexane)Platinum (II)] | + (65-41%) | 57 | +++ (10-0%) | 3 | – | – | +++ (10-0%) | 0 | – | LD50 (male mice (ddN strain)): 11.3 mg/kg; T/C % (leukemia L 1210; L 1210, 6.25 mg/kg i.p.): 198%; T/C % (leukemia L 1210; L 1210, 12.5 mg/kg i.p.): 211%; T/C % (leukemia L 1210; L 1210, 25 mg/kg i.p.): 164%; T/C % (leukemia L 1210; L 1210, 100 mg/kg i.p.): 0%; T/C % (leukemia L 1210; L 1210, 200 mg/kg i.p.): 0%; T/C % (leukemia L 1210; L 1210, 400 mg/kg i.p.): 0%
CC1C(=O)[O][Pt][O]C1=O.NC1CCCCC1N [Compound No. 11, Cis-methylmalonato(trans-d-1,2-diaminocyclohexane)platinum(II)] | – | – | – | – | 138 | 154 | – | – | 121 | –
NC1CCCCC1N.O=C1CC(=O)[O][Pt][O]1 (stereo not drawn) [Compound No. 8, Cis-malonato(trans-d-1,2-diaminocyclohexane)platinum (II)] | – | – | – | – | 155 | – | + (65-41%) | 47 | 138 | T/C % (leukemia P 388; P 388, 12.5 mg/kg i.p.): 121%; Evaluation ([1]; 30 mg/kg i.p.): +++ (10-0%); Growth Rate T/C (%) ([1]; 30 mg/kg i.p.): 1%; Evaluation ([1]; 100 mg/kg i.p.): +++ (10-0%); Growth Rate T/C (%) ([1]; 100 mg/kg i.p.): 0%
NC1CCCCC1N.[Cl-].[Cl-].[Pt+2] (stereo not drawn) [Compound No. 3, Cis-dichloro(trans-l-1,2-diaminocyclohexane)platinum (II)] | ++ (40-11%) | 18 | +++ (10-0%) | 2 | – | – | – | – | – | LD50 (male mice (ddN strain)): 14.1 mg/kg; T/C % (leukemia L 1210; L 1210, 6.25 mg/kg i.p.): 316%; T/C % (leukemia L 1210; L 1210, 12.5 mg/kg i.p.): 379%; T/C % (leukemia L 1210; L 1210, 25 mg/kg i.p.): 88%; T/C % (leukemia L 1210; L 1210, 50 mg/kg i.p.): 71%; T/C % (leukemia L 1210; L 1210, 100 mg/kg i.p.): 0%; T/C % (leukemia L 1210; L 1210, 200 mg/kg i.p.): 0%
NC1CCCCC1N.O=C([O-])CC(=O)[O-].[Pt+2] (stereo not drawn) [Compound No. 7, Cis-malonato(cis-1,2-diaminocyclohexane)platinum (II)] | – | – | – | – | 155 | – | + (65-41%) | 61 | 142 | T/C % (leukemia P 388; P 388, 12.5 mg/kg i.p.): 126%; Evaluation ([1]; 30 mg/kg i.p.): +++ (10-0%); Growth Rate T/C (%) ([1]; 30 mg/kg i.p.): 0%; Evaluation ([1]; 100 mg/kg i.p.): +++ (10-0%); Growth Rate T/C (%) ([1]; 100 mg/kg i.p.): 0%
NC1CCCCC1N.[Cl][Pt][Cl] (stereo not drawn) [cis-dichloro (1,2-DAC) Pt(II), reference compound] | ++ (40-11%) | 19 | +++ (10-0%) | 3 | – | – | – | – | – | Evaluation ([1]; 0.3 mg/kg i.p.): ++ (40-11%); Growth Rate T/C (%) ([1]; 0.3 mg/kg i.p.): 12%
Cis-uracil(trans-l-1,2-diaminocyclohexane)platinum (II) [Compound No. 15] | – | – | – | – | 155 | 181 | – | – | – | T/C % (leukemia P 388; P 388, 200 mg/kg i.p.): 178%
CC(C(=O)[O-])C(=O)[O-].NC1CCCCC1N.[Pt+2] [Compound No. 10, Cis-methylmalonato(cis-1,2-diaminocyclohexane)platinum (II)] | – | – | – | – | – | – | – | – | – | T/C % (leukemia P 388; P 388, 20 mg/kg i.p.): 102%; T/C % (leukemia P 388; P 388, 40 mg/kg i.p.): 121%; T/C % (leukemia P 388; P 388, 80 mg/kg i.p.): 133%
CC(C(=O)[O-])C(=O)[O-].NC1CCCCC1N.[Pt+2] [Compound No. 12, Cis-methylmalonato(trans-l-1,2-diaminocyclohexane)platinum(II)] | – | – | – | – | 122 | 141 | – | – | 115 | –
O=C(O)C(=O)O.[NH-][C@@H]1CCCC[C@H]1[NH-].[Pt+2] (relative stereo) [Compound No. 6, Cis-oxalato(trans-l-1,2-diaminocyclohexane)platinum (II)] | – | – | +++ (10-0%) | 9 | 0 | 0 | – | – | 61 | T/C % (leukemia P 388; P 388, 6.25 mg/kg i.p.): 188%
NC1CCCCC1N.O=C1[O][Pt][O]C1=O (stereo not drawn) [Compound No. 5, Cis-oxalato(trans-d-1,2-diaminocyclohexane)platinum (II)] | – | – | +++ (10-0%) | 10 | – | – | – | – | – | T/C % (leukemia P 388; P 388, 10 mg/kg i.p.): 174%; T/C % (leukemia P 388; P 388, 20 mg/kg i.p.): 195%; T/C % (leukemia P 388; P 388, 40 mg/kg i.p.): 0%
NC1CCCCC1N.O=C([O-])CC(=O)[O-].[Pt+2] (stereo not drawn) [Compound No. 9, Cis-malonato(trans-l-1,2-diaminocyclohexane)platinum (II)] | – | – | – | 85 | – | – | ++ (40-11%) | 17 | – | T/C % (leukemia P 388; P 388, 75 mg/kg i.p.): 202%; T/C % (leukemia P 388; P 388, 150 mg/kg i.p.): 104%; Evaluation ([1]; 30 mg/kg i.p.): + ++; Growth Rate T/C (%) ([1]; 30 mg/kg i.p.): 1%; Evaluation ([1]; 100 mg/kg i.p.): +++ (10-0%); Growth Rate T/C (%) ([1]; 100 mg/kg i.p.): 4%
Cis-uracil(cis-1,2-diaminocyclohexane)platinum (II) [Compound No. 13] | – | – | – | – | – | 163 | – | – | – | T/C % (leukemia P 388; P 388, 200 mg/kg i.p.): 71%; T/C % (leukemia P 388; P 388, 400 mg/kg i.p.): 0%
NC1CCCCC1N.O=C1[O][Pt][O]C1=O (stereo not drawn) [Compound No. 4, Cis-oxalato(cis-1,2-diaminocyclohexane)platinum (II)] | +++ (10-0%) | 0 | +++ (10-0%) | 0 | 0 | 0 | +++ (10-0%) | 0 | 200 | Growth Rate T/C (%) ([1]; 0.3 mg/kg i.p.): 83%
